# In ChEMBL document CHEMBL1148416, “2-Alkylsulfanyl estrogen derivatives: synthesis of a novel class of multi-targeted anti-tumour agents” (Bioorg Med Chem Lett, 2004):
# System: MCF7
# Assay: Anti-proliferative activity against MCF-7 human breast cancer cells was determined by using MCF-7 plate assay
# Assay type: functional, cell-based
row,Compound,IC50 [µM]
1,CCSc1cc2c(cc1OS(N)(=O)=O)CC[C@@H]1[C@@H]2CC[C@]2(C)[C@@H](O)CC[C@@H]12,35.3
2,"C[C@]12CC[C@@H]3c4ccc(OS(N)(=O)=O)cc4CCC3[C@@H]1CCC2=O (single isomer, unassigned) [EMATE]",22.8
3,"CSc1cc2c(cc1OS(N)(=O)=O)CCC1[C@@H]2CC[C@]2(C)C(=O)CC[C@@H]12 (single isomer, unassigned)",0.4
4,"CCSc1cc2c(cc1O)CCC1[C@@H]2CC[C@]2(C)C(=O)CC[C@@H]12 (single isomer, unassigned)",31.9
5,CSc1cc2c(cc1O)CC[C@@H]1[C@@H]2CC[C@]2(C)[C@@H](O)CC[C@@H]12,3.96
6,CSc1cc2c(cc1OS(N)(=O)=O)CC[C@@H]1[C@@H]2CC[C@]2(C)[C@@H](O)CC[C@@H]12,0.43
7,"CSc1cc2c(cc1O)CCC1[C@@H]2CC[C@]2(C)C(=O)CC[C@@H]12 (single isomer, unassigned)",33.4
8,COc1cc2c(cc1O)CC[C@@H]1[C@@H]2CC[C@]2(C)[C@@H](O)CC[C@@H]12 [2-METHOXYESTRADIOL],2.39
